# US11548868B2, “Heterocyclic compounds, compositions comprising heterocyclic compound, and methods of use thereof” (JS INNOPHARM (SHANGHAI) LTD, priority 2017, dated 2023)
# Experiments:
# [1] = target: T1, TDO2 in A172 cancer cells (Homo sapiens, UniProt P48775); assay: TDO2 Cellular Assay (kynurenine production in A172 cancer cells); assay type: cell-based; conditions: L-Trp 1 mM, 24 hours incubation, kynurenine at 490 nm
# T1 construct: endogenous in cells; host or cells: A172 cancer cells
# Procedure, shortened: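 Kynurenine output of A172 cells was read colorimetrically at 490 nm (Ehrlich reagent after TCA hydrolysis at 50 °C). Cells had 1 mM L-Trp plus compound at 0–25 μM in 0.25% DMSO for 24 h; IC50 values were fitted non-linearly from percent inhibition relative to vehicle.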
# Recombinant human IDO1 = Recombinant human IDO1 (Homo sapiens, UniProt P14902); assay: IDO1 Enzymatic Assay; conditions: recombinant human IDO1 40 nM, L-tryptophan 100 μM, 40 min room temperature, N′-formylkynurenine absorbance 321 nm; read-out: IDO1 biochemical activity*
# Experimental: The IDO1 biochemical inhibitory activity is determined by measuring the decrease in N′-formylkynurenine from tryptophan catalyzed by IDO1 enzyme. Recombinant human IDO1 (40 nM), L-tryptophan (100 μM), L-ascorbic acid (20 mM), methylene Blue (20 μM), catalase (0.2 mg/mL), and serial dilutions of the test compounds in a total volume of […] containing DMSO (with final DMSO concentration of 0.5%) and a pH 7.5 buffer containing potassium phosphate (50 mM) were added into each well in a 96-well plate. After incubation at room temperature for 40 min, the absorbance of the reaction mixture was read at 321 nm to measure the formation of N′-formylkynurenine by SpectraMax microplate reader. Percent inhibition of the test compounds was determined by measuring the decrease in N′-formylkynurenine as compared to the control of DMSO vehicle, which was calculated by formula of (WC−WT)/WC, where WC is the mean absorbance of the control well minus blank well; WT is the mean absorbance of the test well minus the blank well. Data was analyzed by GraphPad Prism 5 and the IC50 values were obtained by non-linear regression.
# The IC50 values of IDO1 biochemical activity for the examples disclosed herein are listed in Table 2, A: ≤0.1 μM; B: >0.10 μM and ≤0.5 μM; C: >0.5 μM and ≤1.0 μM; and D: >1.0 μM.
# [2] = target: T2, IDO1 in Hela cancer cells (Homo sapiens, UniProt P14902); assay: IDO1 Cellular Assay (kynurenine production in IFN-γ stimulated Hela cancer cells); assay type: cell-based; conditions: human IFN-γ 50 ng/mL, 48 hours incubation, kynurenine at 490 nm
# T2 construct: endogenous in cells; host or cells: Hela cancer cells stimulated with human IFN-γ
# Procedure, shortened: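 HeLa cells stimulated with 50 ng/mL IFN-γ (final) and treated 48 h with compound (0–25 μM final, 0.25% DMSO). Supernatant kynurenine measured after TCA hydrolysis and p-dimethylaminobenzaldehyde reaction at 490 nm; inhibition vs DMSO control, IC50 by non-linear regression.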
# Sequence of Recombinant human IDO1 (P14902 whole entry): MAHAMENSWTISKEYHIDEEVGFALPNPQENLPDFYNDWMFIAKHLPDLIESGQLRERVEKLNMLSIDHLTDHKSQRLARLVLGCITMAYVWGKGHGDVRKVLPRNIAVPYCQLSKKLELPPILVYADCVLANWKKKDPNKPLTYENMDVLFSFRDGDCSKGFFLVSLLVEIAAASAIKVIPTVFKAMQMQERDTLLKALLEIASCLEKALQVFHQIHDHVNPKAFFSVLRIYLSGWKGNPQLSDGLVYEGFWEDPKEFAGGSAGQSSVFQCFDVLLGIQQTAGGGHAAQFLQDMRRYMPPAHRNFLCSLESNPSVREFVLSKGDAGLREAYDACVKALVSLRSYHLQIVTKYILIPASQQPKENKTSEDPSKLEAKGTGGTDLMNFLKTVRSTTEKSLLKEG
# T2 sequence (P14902 whole entry): as above
# T1 sequence (P48775 whole entry): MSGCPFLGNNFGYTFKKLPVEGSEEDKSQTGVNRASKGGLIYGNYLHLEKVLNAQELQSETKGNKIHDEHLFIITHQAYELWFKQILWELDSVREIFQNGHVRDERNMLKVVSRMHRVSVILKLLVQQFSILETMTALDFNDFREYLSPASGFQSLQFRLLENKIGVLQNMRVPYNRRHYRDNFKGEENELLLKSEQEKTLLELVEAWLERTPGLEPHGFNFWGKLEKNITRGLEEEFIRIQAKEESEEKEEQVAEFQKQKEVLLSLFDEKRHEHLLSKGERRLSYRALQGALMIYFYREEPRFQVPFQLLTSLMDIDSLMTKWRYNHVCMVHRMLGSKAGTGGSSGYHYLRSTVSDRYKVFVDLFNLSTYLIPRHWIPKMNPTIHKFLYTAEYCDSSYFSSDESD
IC50 [1] [µM],IC50 (Recombinant human IDO1) [µM],IC50 [2] [µM],Compound
≤ 0.5,> 1,,"CS(=O)(=O)N1C[C@H]2CN(c3cc(Cl)cc4[nH]ncc34)C[C@H]2C1 [Example 12, 6-chloro-4-((3aR,6aS)-5-(methylsulfonyl)hexahydropyrrolo[3,4-c]pyrrol-2(1H)-yl)-1H-indazole]"
0.5 to 1,> 1,,"CS(=O)(=O)N1CCCC2CN(c3cc(Cl)cc4[nH]ncc34)CC21 (stereo not drawn) [Example 13, 6-chloro-4-(1-(methylsulfonyl)hexahydro-1H-pyrrolo[3,4-b]pyridin-6(2H)-yl)-1H-indazole]"
0.5 to 1,> 1,,"CC(=O)N1C[C@@H]2CN(c3cc(Cl)cc4[nH]ncc34)C[C@@H]2C1 [Example 14, 1-((3aR,6aS)-5-(6-chloro-1H-indazol-4-yl)hexahydropyrrolo[3,4-c]pyrrol-2(1H)-yl)ethanone]"
≤ 0.5,> 1,,"CC(=O)N1CCCC2CN(c3cc(Cl)cc4[nH]ncc34)CC21 (stereo not drawn) [Example 15, 1-(6-(6-chloro-1H-indazol-4-yl)octahydro-1H-pyrrolo[3,4-b]pyridin-1-yl)ethanone]"
1 to 5,> 1,,"CS(=O)(=O)NC1[C@H]2CN(c3cc(Cl)cc4[nH]ncc34)C[C@@H]12 (stereo partly drawn) [Example 16, N-((1R,5S)-3-(6-chloro-1H-indazol-4-yl)-3-azabicyclo[3.1.0]hexan-6-yl)methanesulfonamide]"
1 to 5,> 1,,"CC(=O)NC1[C@H]2CN(c3cc(Cl)cc4[nH]ncc34)C[C@@H]12 (stereo partly drawn) [Example 17, N-((1R,5S)-3-(6-chloro-1H-indazol-4-yl)-3-azabicyclo[3.1.0]hexan-6-yl)acetamide]"
0.5 to 1,> 1,,"CC(=O)N1CCC2CN(c3cc(Cl)cc4[nH]ncc34)CC21 (stereo not drawn) [Example 19, 1-(5-(6-chloro-1H-indazol-4-yl)hexahydropyrrolo[3,4-b]pyrrol-1(2H)-yl)ethanone]"
> 5,> 1,,"Cn1ncc2c(N3CC4CCN(S(C)(=O)=O)C4C3)cc(Cl)cc21 (stereo not drawn) [Example 20, 6-chloro-1-methyl-4-(1-(methylsulfonyl)hexahydropyrrolo[3,4-b]pyrrol-5(1H)-yl)-1H-indazole]"
1 to 5,> 1,,"CC(=O)N[C@@H]1[C@@H]2CN(c3cc(Cl)cc4[nH]ncc34)C[C@@H]21 [Example 21, N-((1R,5S,6r)-3-(6-chloro-1H-indazol-4-yl)-3-azabicyclo[3.1.0]hexan-6-yl)acetamide]"
0.5 to 1,> 1,,"CS(=O)(=O)N1CCC2CN(c3cc(Cl)cc4[nH]ncc34)CC21 (stereo not drawn) [Example 23, 6-chloro-4-(1-(methylsulfonyl)hexahydropyrrolo[3,4-b]pyrrol-5(1H)-yl)-1H-indazole]"
1 to 5,> 1,,"CS(=O)(=O)N[C@@H]1[C@@H]2CN(c3cc(Cl)cc4[nH]ncc34)C[C@@H]21 [Example 24, N-((1R,5S,6r)-3-(6-chloro-1H-indazol-4-yl)-3-azabicyclo[3.1.0]hexan-6-yl)methanesulfonamide]"
0.5 to 1,> 1,,"CC1(C)C2CN(c3cc(Cl)cc4[nH]ncc34)CC2CN1C(=O)c1ccc(C#N)cc1 (stereo not drawn) [Example 27, 4-(5-(6-chloro-1H-indazol-4-yl)-1,1-dimethyloctahydropyrrolo[3,4-c]pyrrole-2-carbonyl)benzonitrile]"
≤ 0.5,> 1,,"CC1(C)C2CN(c3cc(Cl)cc4[nH]ncc34)CC2CN1S(=O)(=O)C1CC1 (stereo not drawn) [Example 28, 6-chloro-4-(5-(cyclopropylsulfonyl)-4,4-dimethylhexahydropyrrolo[3,4-c]pyrrol-2(1H)-yl)-1H-indazole]"
≤ 0.5,,1 to 5,"O=C(Cc1ccc(Cl)cc1)N1C[C@@H]2C[C@@](O)(c3cc(Cl)cc4[nH]ncc34)C[C@@H]2C1 [Example 175, 1-((3aR,5r,6aS)-5-(6-chloro-1H-indazol-4-yl)-5-hydroxyhexahydrocyclopenta[c]pyrrol-2(1H)-yl)-2-(4-chlorophenyl)ethanone]"
≤ 0.5,,≤ 0.5,"O=C(N[C@H]1[C@@H]2C[C@@](O)(c3cc(Cl)cc4[nH]ncc34)C[C@@H]21)c1ccc(F)c(Br)c1 [Example 176, 3-bromo-N-((1R,3r,5S,6r)-3-(6-chloro-1H-indazol-4-yl)-3-hydroxybicyclo[3.1.0]hexan-6-yl)-4-fluorobenzamide]"
≤ 0.5,,0.5 to 1,"O=C(N[C@H]1[C@@H]2C[C@@](O)(c3cc(Cl)cc4[nH]ncc34)C[C@@H]21)c1ccnc2ccc(F)cc12 [Example 177, N-((1R,3r,5S,6r)-3-(6-chloro-1H-indazol-4-yl)-3-hydroxybicyclo[3.1.0]hexan-6-yl)-6-fluoroquinoline-4-carboxamide]"
≤ 0.5,,≤ 0.5,"O=C(N[C@H]1[C@@H]2C[C@@](O)(c3cc(Cl)cc4[nH]ncc34)C[C@@H]21)c1cccc(C2CC2)c1 [Example 178, N-((1R,3r,5S,6r)-3-(6-chloro-1H-indazol-4-yl)-3-hydroxybicyclo[3.1.0]hexan-6-yl)-3-cyclopropylbenzamide]"
≤ 0.5,,≤ 0.5,"O=C(N[C@H]1[C@@H]2C[C@@](O)(c3cc(Cl)cc4[nH]ncc34)C[C@@H]21)c1cncc(Cl)c1 [Example 179, 5-chloro-N-((1R,3r,5S,6r)-3-(6-chloro-1H-indazol-4-yl)-3-hydroxybicyclo[3.1.0]hexan-6-yl)nicotinamide]"
≤ 0.5,,≤ 0.5,"O=C(N[C@H]1[C@@H]2C[C@@](O)(c3cc(Cl)cc4[nH]ncc34)C[C@@H]21)c1ccc(F)c(OC(F)(F)F)c1 [Example 180, N-((1R,3r,5S,6r)-3-(6-chloro-1H-indazol-4-yl)-3-hydroxybicyclo[3.1.0]hexan-6-yl)-4-fluoro-3-(trifluoromethoxy)benzamide]"
≤ 0.5,,≤ 0.5,"N#Cc1cncc(C(=O)N[C@H]2[C@@H]3C[C@@](O)(c4cc(Cl)cc5[nH]ncc45)C[C@@H]32)c1 [Example 181, N-((1R,3r,5S,6r)-3-(6-chloro-1H-indazol-4-yl)-3-hydroxybicyclo[3.1.0]hexan-6-yl)-5-cyanonicotinamide]"
≤ 0.5,,≤ 0.5,"O=C(N[C@H]1[C@@H]2C[C@@](O)(c3cc(Cl)cc4[nH]ncc34)C[C@@H]21)c1cncc(C(F)(F)F)c1 [Example 182, N-((1R,3r,5S,6r)-3-(6-chloro-1H-indazol-4-yl)-3-hydroxybicyclo[3.1.0]hexan-6-yl)-5-(trifluoromethyl)nicotinamide]"
